We go through 4 molecules from PMC6386482, “ASB20123: A novel C-type natriuretic peptide derivative for treatment of growth failure and dwarfism” (PLoS ONE, 2019).

Series [1] in a line: PK of CNP immunoreactivity after single intravenous administration in rats. In kind it is in vivo, rat.
The nature of series [2]: PK of CNP immunoreactivity after single subcutaneous administration in rats. Format: in vivo, rat.
The conditions of series [3]: mouse, in vivo. How it is done:
Three-week-old juvenile female ICR mice (n = 5 or 10/group) received ASB20123 sc bolus injections once daily for 8 weeks. Seven-week-old male SD rats (n = 5/group) received ASB20123 as multiple sc bolus injections or a continuous sc infusion using an osmotic mini-pump (ALZET osmotic pump, Durect Corporation, USA) for 1 or 12 weeks. Growth rate of each animal was monitored throughout the treatment and washout periods. Body weight, body (naso-anal) length, and tail length were measured weekly, and femoral and tibial lengths were measured with digital calipers on the final day. Osteocalcin concentration in mouse serum was measured as a marker of bone formation using commercially available ELISA kits (Mouse Osteocalcin EIA kit, Biomedical Technologies Inc., USA). Anti-ASB20123 antibody in mouse serum was measured using commercially available ELISA kits (Protein detector ELISA Kit, Kirkegaard & Perry Laboratories, Inc., USA) and ASB20123. The blood samples were collected from the posterior vena cava at the end of the dosing period and centrifuged to obtain serum samples. CNP immunoreactivity in rat plasma was determined by RIA as mentioned in the method of PK studies. The blood samples were collected from cervical vein at 15 min after sc bolus dosing or before necropsy for animals given a continuous sc infusion.

Series [4] can be described thus: Plasma CNP immunoreactivity after sc bolus in vehicles containing ECM in rats. How it is done:
We prepared CNP(1–22) and ASB20123 dissolved in vehicles containing ECM and delivered them to rats as sc bolus injections at 0.58 mg/kg for evaluation of their in vivo effects (S2 Fig).

The subject of series [5] is Crouzon syndrome mouse model. The settings on record: cited from earlier work. The text has this:
(§1) In the previous study, we designed and evaluated some CNP/ghrelin chimeric peptides as novel CNP derivatives. […] In the current study, we prepared another novel CNP/ghrelin chimeric peptide ASB20123 and evaluated its pharmacological activities. ASB20123 is comp ...

The next series concerns Fgfr3^ach mice. As to conditions: cited from earlier work.
Excerpt: as §1

The conditions of series [6]: cited from earlier work. From the text:
C-type natriuretic peptide (CNP) is a member of the natriuretic peptide (NP) family that also includes atrial natriuretic peptide (ANP) and brain natriuretic peptide (BNP). […] However, CNP is expressed in various tissues, such as the central nervous system, reproductive tract, bone, and endothelium of blood ...

Another series relates to female ICR mice. Kind of series: Skeletal growth of mice given CNP(1–22) or human CNP(1–53) sc for 3 weeks. In kind it is in vivo, mouse. As to conditions: subcutaneous administration for 3 weeks (S3 Fig). From the text: Interstitial diffusion of macromolecules, such as HA and glycosaminoglycan, is affected by their physiochemical characteristics, including their size, charge, and hydrophilicity, as well as their interactions with the endogenous components present in the interstitium. Interaction between ASB20123 and the endogenous molecules might play a role in the diffusion and absorption processes. […] The C-terminal part of ASB20123 might interact with ECM components, such as HA and glycosaminoglycan, resulting in a delay of its absorption from the sc tissue to the circulation and improvement of its stability.
Supplementary file pone.0212680.s003.tif: S3 Fig Body weight and body length of female ICR mice subcutaneously administered CNP(1–22) and human CNP(1–53) for 3 weeks. (TIF) Click here for additional data file.

Series [7] has as its system neutral endopeptidase (NEP). As to conditions: cited from earlier work.
The mark [8] stands for this setting: anesthetized male SD rats, single iv 20 nmol/kg, plasma CNP immunoreactivity by RIA, mean of 3 rats.
Setting [9] is: anesthetized male SD rats, single sc 50 nmol/kg, plasma CNP immunoreactivity by RIA, mean of 3 rats.

Ends that are not written are not given here. Peptide text beside a SMILES is read from it.

As for `CC[C@H](C)[C@@H]1NC(=O)[C@H](CCCNC(=N)N)NC(=O)[C@H](CC(=O)O)NC(=O)[C@H](CC(C)C)NC(=O)[C@H](CCCCN)NC(=O)[C@H](CC(C)C)NC(=O)CNC(=O)[C@H](Cc2ccccc2)NC(=O)[C@@H](NC(=O)CNC(=O)[C@H](CCCCN)NC(=O)[C@H](CO)NC(=O)[C@H](CC(C)C)NC(=O)CN)CSSC[C@@H](C(=O)N[C@H](C(=O)N[C@@H](CCC(N)=O)C(=O)N[C@@H](CCC(N)=O)C(=O)N[C@@H](CCCNC(=N)N)C(=O)N[C@@H](CCCCN)C(=O)N[C@@H](CC(=O)O)C(=O)N[C@@H](CO)C(=O)N[C@@H](CCCCN)C(=O)N[C@@H](CCCCN)C(=O)N2CCC[C@H]2C(=O)N2CCC[C@H]2C(=O)N[C@@H](C)C(=O)N[C@@H](CCCCN)C(=O)N[C@@H](CC(C)C)C(=O)N[C@@H](CCC(N)=O)C(=O)N2CCC[C@H]2C(=O)N[C@@H](CCCNC(=N)N)C(=O)O)C(C)C)NC(=O)CNC(=O)[C@H](CC(C)C)NC(=O)CNC(=O)[C@H](CO)NC(=O)[C@H](CCSC)NC(=O)[C@H](CO)NC(=O)CNC1=O` [ASB20123] (HELM PEPTIDE1{G.L.S.K.G.C.F.G.L.K.L.D.R.I.G.S.M.S.G.L.G.C.V.Q.Q.R.K.D.S.K.K.P.P.A.K.L.Q.P.R}$PEPTIDE1,PEPTIDE1,6:R3-22:R3$$$V2.0), in series [1] (rat, in vivo, iv), the T1/2 was 31.3 min; the distribution volume (Vdss) (as a rule, a proportionality between amount in the body and measured concentration, not a real space) turned out to be 0.429 L/kg; the “Vdss relative to that of CNP(1–22)” value was found to be 6.7 fold. In series [2] (rat, in vivo, sc), the T1/2 is 32.1 min and the time to peak (Tmax) (usually the time from dosing to the highest level) is on record as 20.0 min. For the same molecule, the “Anti-ASB20123 antibody in serum” value in [3] was “not detected”. In series [4] (rat, in vivo, sc, 0.58 mg/kg), the AUC entry is “higher than that when ASB20123 was dissolved in saline” and the “Time to reach the maximum plasma CNP concentration (Cmax)” value is given as “delayed”.
BMN-111: the Body length result (in series [5]; in the series with Fgfr3^ach mice) was “increased the body length” throughout.
As for `CC[C@H](C)[C@@H]1NC(=O)[C@H](CCCNC(=N)N)NC(=O)[C@H](CC(=O)O)NC(=O)[C@H](CC(C)C)NC(=O)[C@H](CCCCN)NC(=O)[C@H](CC(C)C)NC(=O)CNC(=O)[C@H](Cc2ccccc2)NC(=O)[C@@H](NC(=O)CNC(=O)[C@H](CCCCN)NC(=O)[C@H](CO)NC(=O)[C@H](CC(C)C)NC(=O)CN)CSSC[C@@H](C(=O)O)NC(=O)CNC(=O)[C@H](CC(C)C)NC(=O)CNC(=O)[C@H](CO)NC(=O)[C@H](CCSC)NC(=O)[C@H](CO)NC(=O)CNC1=O` [CNP(1–22), C-type natriuretic peptide], in series [1] (setting [8]), the “AUC0→∞” value came to 320 pmol・min/mL, the CLtot was 63.9 mL/min/kg, the “MRT0→∞” value is listed as 1.02 min and the T1/2 was found to be 1.42 min. For the same molecule, the Vdss in [1] (setting [8]) was 0.0642 L/kg. Further, in series [2] (anesthetized male SD rats, single sc 50 nmol/kg, bioavailability, mean of 3 rats), the BA is 19%. Moreover, in series [2] (setting [9]), the “AUC0→∞” value was determined as 152 pmol・min/mL, the maximum concentration (Cmax) (usually the maximum level reached in the sampled fluid or tissue) is 9.02 nM, the “MRT0→∞” value turned out to be 13.9 min and the T1/2 came to 10.0 min. Also, in series [2] (setting [9]), the Tmax is 5.0 min. Besides, the “PK profile, effect of vehicle components” value in series [4] (rats, sc bolus 0.58 mg/kg in vehicles containing ECM) is recorded as “not affected by its vehicle components”. The “Clearance of exogenous peptide from the circulation” value in [6] was “rapidly cleared from the circulation”.
Consider “CNP(1–53): 53-residue peptide generated from pro-CNP (DLRVDTKSRAAWARLLQEHPNARKYKGANKKGLSKGCFGLKLDRIGSMSGLGC; ends and bridges not checked; cysteine pairing not given here; UniProt P23582 74-126, looked up)”, for which, in the series with female ICR mice, the “Skeletal growth compared to CNP(1–22)” value is given as “more potently than that induced by CNP(1–22) administration”. Moreover, the “Stability against neutral endopeptidase (NEP)” value in series [7] is “resistant to proteolytic inactivation”.
